This data set can be described thus: Test for the stability against oxidation of arachidonic acid moiety (storage at 37° C., humidity 12%, gas chromatography of non-oxidized arachidonic acid). The class given is physicochemical. The note with it: stored at 37° C. As to the method:
The resulting microcapsulated powder of 6-O-arachidonoyl-ascorbate was left in the air at 37° C. and a humidity of 12% for 30 days to determine the stability of the powder against oxidation (See, Example 4 below). During the 30-day period, samples were taken at predetermined intervals and were hydrolyzed into methyl arachidonate, which in turn was subjected to gas chromatography to determine the amount of non-oxidized arachidonic acid. As shown, the stability of any polysaccharides used was improved by powdering. The increase in the stability against oxidation was particularly significant in gum Arabic and soybean polysaccharide.
240 mg of each powder product (microcapsule) obtained in each example was placed in a flat bottom glass container (1.5 cm inner diameter, 3 cm high). Using an aqueous solution of lithium chloride, the humidity inside the container was maintained at 12% and the powder was stored at 37° C. The cup was taken out at predetermined intervals and the 6-O-arachidonoyl-ascorbate encapsulated in the microcapsules was hydrolyzed, followed by esterification with methyl groups. The amount of non-oxidized arachidonic acid was determined by gas chromatography (GC-14B, manufactured by SHIMADZU CORP.). The samples were analyzed using methyl myristate as an internal standard. […]

On to `CCCCC/C=C\C/C=C\C/C=C\C/C=C\CCCC(=O)O` [non-capsulated arachidonic acid, arachidonic acid], for which the “disappearance of non-oxidized arachidonic acid” value is “disappeared in a few hours”.

In the case of 6-O-arachidonoyl-ascorbate, the “proportion of the arachidonic acid left unoxidized” value (after 30 days, relative to Day 0) was 30%.

The record behind these values is patent US7989642B2, “Process for producing powdered compositions containing highly unsaturated fatty acid esters of ascorbic acid and powdered compositions containing the esters” (Suntory Holdings Limited, priority 2003, dated 2011).
